Assay results taken from patent US5516790A, “Synthesis and application of alkyl-substituted dibenzofurans as antitumorigenic agents” (Texas A&M University System Technology Licensing Office, priority 1994, dated 1996).
Where two headings read alike, the source gives them in different places.

Key:
progesterone receptor = conditions: rat, in vivo; cited from earlier work
estrogen receptor = conditions: rat, in vivo; cited from earlier work
[1] = test system: MCF-7 human breast cancer cells; conditions: Biegel, 1990; cited from earlier work
estrogen receptor (ER) = format: in vivo, female Sprague/Dawley rats
Description: (§1) TCDD or MCDF was co-administered with a second dose of estradiol and the animals were killed 48-hours later. A second group of animals was similarly treated with corn oil, TCDD, MCDF, or TCDD plus MCDF, all administered in corn oil at 10 ml/kg and terminated 72 hours later.
(§2) The animals were terminated by cervical dislocation. Livers were perfused with ice-cold TEDG buffer (10 mM Tris-HCl, 1.5 mM EDTA-4Na, 1 mM dithiothreitol, 10% glycerol (v/v), pH 7.4). Following perfusion in situ, livers were removed, weighed, and homogenized in ice-cold TEDG buffer. Uteri were also removed, weighed, and homogenized in ice-cold buffer. The homogenates were then centrifuged at 800×g […] for 15 minutes and the nuclear pellets were stored at -80° C. The supernatants were further centrifuged at 180,000×g for 1.5 hour. The cytosolic supernatant was also stored at -80° C. Estrogen and progesterone receptor levels were determined within 7 days.
(§3) Estrogen and progesterone receptor levels were determined by the hydroxyapatite assay as described by Clark et al. (J. Steroid, Biochem., 16, 323-328 (1982)). […] Following the incubations, samples were counted and specific binding was calculated by subtraction of nonspecific from total binding. Assuming one steroid molecule binds to one estrogen/progesterone receptor, the number of moles of receptor can be calculated given the specific activity of the radioligand. […] Significant differences were determined by ANOVA.

[2] = test system: progesterone receptor (PR); format: in vivo, female Sprague/Dawley rats
Description: as §1, §2, §3

34-kDa protein = format: cell-based, human; conditions: for Protein Secretion, 34-kDa: 2880 min
Description: (§4) On day 0, the media was removed and the cells were rinsed two times with PBS. […] The cells were allowed to incubate for 48 h. […] After 6 h, the media was removed, 10 μl was counted and the remaining media was used for analysis of secreted proteins.
(§5) The secreted proteins were analyzed by sodium dodecyl sulfate (SDS) polyacrylamide gel electrophoresis; 30 μl of the media was mixed with an equal volume of buffer containing SDS, β-mercaptoethanol, glycerol, Tris and bromophenol blue. The samples were heated for 2 minutes in a boiling water bath and 50 μl of each sample was loaded onto a 1.5 mm thick 12% acrylamide slab gel (containing 0.075% bisacrylamide) with a 3% stacking gel (containing 0.15% bisacrylamide). The gels were run at […] overnight and processed for fluorography (using Enhance: Dupont) and exposed to Kodak X-OMAT film for 10 days at -80° C. The molecular weights of the proteins were estimated by their mobility relative to a set of standard proteins with known molecular weights.
(§6) The incorporation of ^35 S-methionine into the 34-kDa, 52-kDa and 160-kDa proteins was estimated by scanning the films using a Zeineh Soft Laser Scanning Densitometer (model SLR-20/10) from Biomedical Instruments,Inc. The percentage of the area of the scans due to the particular protein was then compared between the experimental and control samples and the results are presented as means ± SD for at least three samples per treatment group.

52-kDa protein = format: cell-based, human; conditions: MCDF
Description: as §4, §5, §6

160-kDa protein = format: cell-based, human; conditions: for Protein Secretion, 160-kDa: 2880 min
Description: as §4, §5, §6

female rat uterus = format: in vivo, female Sprague/Dawley rats
Description: as §1, §2

nuclear ER = conditions: cited from earlier work

## Cc1cc(Cl)cc2c1oc1cc(Cl)cc(Cl)c12 [MCDF, 6-methyl 1,3,8-trichlorodibenzofuran]
Progesterone receptor
  upregulation of uterine nuclear and cytosolic progesterone receptor levels by 17β-estradiol: inhibits
  uterine and hepatic cytosolic and nuclear progesterone receptor levels: dose response decrease
Estrogen receptor
  upregulation of uterine nuclear and cytosolic estrogen receptor levels by 17β-estradiol: inhibits
  uterine and hepatic cytosolic and nuclear estrogen receptor levels: dose response decrease
[1]
  17β-estradiol-induced growth of MCF-7 cells: inhibits
Estrogen receptor (ER); MCDF 10 μmol/kg
  Hepatic ERc: 6.6 ± 0.5 fmol/mg protein
  Hepatic ERn: 6.1 ± 1.0 fmol/mg protein
  Uterine ERc: 137.7 ± 11.6 fmol/mg protein
  Uterine ERn: 15.8 ± 1.9 fmol/mg protein
Estrogen receptor (ER); MCDF 50 μmol/kg
  Hepatic ERc: 4.6 ± 0.8 fmol/mg protein
  Hepatic ERn: 3.5 ± 0.6 fmol/mg protein
  Uterine ERc: 110.3 ± 6.6 fmol/mg protein
  Uterine ERn: 13.2 ± 2.1 fmol/mg protein
Estrogen receptor (ER); MCDF 100 μmol/kg
  Hepatic ERc: 3.1 ± 0.3 fmol/mg protein
  Hepatic ERn: 3.1 ± 0.7 fmol/mg protein
  Uterine ERc: 90.2 ± 11.2 fmol/mg protein
  Uterine ERn: 11.5 ± 1.0 fmol/mg protein
Estrogen receptor (ER); MCDF 50 and 100 μmol/kg
  constitutive uterine hepatic estrogen receptors: dose dependent decrease
Estrogen receptor (ER); Table 11, cotreatment with E-2
  Hepatic ERc: 8.1 ± 1.2 fmol/mg protein
  Hepatic ERn: 3.6 ± 0.9 fmol/mg protein
  Uterine ERc: 93.5 ± 4.0 fmol/mg protein
  Uterine ERn: 18.5 ± 1.2 fmol/mg protein
Estrogen receptor (ER); rat, in vivo
  Hepatic ERc: 3.7 ± 1.1
  Hepatic ERn: 3.1 ± 0.2
  Uterine ERc: 67.8 ± 2.5
  Uterine ERn: 13.0 ± 1.1
  uterine and hepatic estrogen receptors and progesterone receptor levels, of corresponding levels with 17β-estradiol alone (1st of four values): 43%
  uterine and hepatic estrogen receptors and progesterone receptor levels, of corresponding levels with 17β-estradiol alone (2nd of four values): 59%
[2]; MCDF 10 μmol/kg
  Hepatic PRc: 74.3 ± 8.1 fmol/mg protein
  Hepatic PRn: 8.9 ± 1.5 fmol/mg protein
  Uterine PRc: 980 ± 34.6 fmol/mg protein
  Uterine PRn: 390 ± 31.6 fmol/mg protein
[2]; MCDF 50 μmol/kg
  Hepatic PRc: 66.0 ± 7.1 fmol/mg protein
  Hepatic PRn: 7.6 ± 1.0 fmol/mg protein
  Uterine PRc: 886 ± 20.1 fmol/mg protein
  Uterine PRn: 290 ± 30.2 fmol/mg protein
[2]; MCDF 100 μmol/kg
  Hepatic PRc: 40.2 ± 3.2 fmol/mg protein
  Hepatic PRn: 6.8 ± 1.0 fmol/mg protein
  Uterine PRc: 811 ± 26.4 fmol/mg protein
  Uterine PRn: 240 ± 26.1 fmol/mg protein
[2]; MCDF 50 and 100 μmol/kg
  constitutive uterine hepatic progesterone receptor levels: dose dependent decrease
[2]; Table 11, cotreatment with E-2
  Hepatic PRc: 108.9 ± 11.1 fmol/mg protein
  Hepatic PRn: 6.4 ± 1.0 fmol/mg protein
  Uterine PRc: 941.2 ± 45.1 fmol/mg protein
  Uterine PRn: 602 ± 11.4 fmol/mg protein
[2]; rat, in vivo
  Hepatic PRc: 60.6 ± 8.4 fmol/mg protein
  Hepatic PRn: 5.1 ± 1.0 fmol/mg protein
  Uterine PRc: 805.3 ± 29.0 fmol/mg protein
  Uterine PRn: 205 ± 10.6 fmol/mg protein
  uterine and hepatic estrogen receptors and progesterone receptor levels, of corresponding levels with 17β-estradiol alone (3rd of four values): 36%
  uterine and hepatic estrogen receptors and progesterone receptor levels, of corresponding levels with 17β-estradiol alone (4th of four values): 75%
34-kDa protein; 17β-estradiol + MCDF
  Protein Secretion, 34-kDa: 78 % of Control
34-kDa protein; MCDF
  17β-estradiol-induced secretion of the 34-kDa protein: inhibits
34-kDa protein; MCDF alone (100 nM)
  Protein Secretion, 34-kDa: 80 % of Control
52-kDa protein
  17β-estradiol-induced secretion of the 52-kDa protein: inhibits
160-kDa protein; 17β-estradiol + MCDF
  Protein Secretion, 160-kDa: 76 % of Control
160-kDa protein; MCDF
  17β-estradiol-induced secretion of the 160-kDa protein: inhibits
160-kDa protein; MCDF alone (100 nM)
  Protein Secretion, 160-kDa: 72 % of Control
Female rat uterus; MCDF alone
  uterine wet weights compared to corn oil treated animals: significantly decreased
Female rat uterus; co-treated animals
  estradiol induced increase in uterine wet weight: partially inhibited
Female rat uterus; cotreatment with E-2
  Uterine Wet Weight: 0.255 ± 0.031 % body wt
Female rat uterus; rat, in vivo
  Uterine Wet Weight: 0.090 ± 0.113 % body wt
Nuclear ER
  17β-estradiol-induced accumulation of nuclear ER levels in MCF-7 cells: inhibits
